Ki and inhibition data for 38 compounds are collected here from US20100173968A1, “SUB-TYPE SELECTIVE AZABICYCLOALKANE DERIVATIVES” (TARGACEPT, INC., priority 2007, published 2010).

The structures appear in SMILES notation. Where a name gives a salt, the structure may show the parent alone. Read-outs that look alike come from different tables or passages of the source.

One experiment concerns the target α4β2 nAChR Subtype (Rattus norvegicus, UniProt P09483+P12390). Nature of the experiment: Radioligand binding at α4β2 nAChR subtype, inhibition of [3H]nicotine binding, rat cerebral cortex membranes. The settings on record: [3H]nicotine 5 nM. Here is the method: The [^3H]nicotine (Specific Activity=81.5 Ci/mmol) was obtained from NEN Research Products. The binding of [^3H]nicotine was measured using a 3 h incubation at 4° C. […] Each filter was washed with ice-cold buffer (3×1 mL).
Each concentration was replicated in triplicate.

The target of a further experiment is Human α4β2 (Homo sapiens, UniProt P17787+P43681). Put plainly: Binding at human α4β2 (Ki); method not described.
Human α4β2, sequence (P43681 29-627 limits assumed): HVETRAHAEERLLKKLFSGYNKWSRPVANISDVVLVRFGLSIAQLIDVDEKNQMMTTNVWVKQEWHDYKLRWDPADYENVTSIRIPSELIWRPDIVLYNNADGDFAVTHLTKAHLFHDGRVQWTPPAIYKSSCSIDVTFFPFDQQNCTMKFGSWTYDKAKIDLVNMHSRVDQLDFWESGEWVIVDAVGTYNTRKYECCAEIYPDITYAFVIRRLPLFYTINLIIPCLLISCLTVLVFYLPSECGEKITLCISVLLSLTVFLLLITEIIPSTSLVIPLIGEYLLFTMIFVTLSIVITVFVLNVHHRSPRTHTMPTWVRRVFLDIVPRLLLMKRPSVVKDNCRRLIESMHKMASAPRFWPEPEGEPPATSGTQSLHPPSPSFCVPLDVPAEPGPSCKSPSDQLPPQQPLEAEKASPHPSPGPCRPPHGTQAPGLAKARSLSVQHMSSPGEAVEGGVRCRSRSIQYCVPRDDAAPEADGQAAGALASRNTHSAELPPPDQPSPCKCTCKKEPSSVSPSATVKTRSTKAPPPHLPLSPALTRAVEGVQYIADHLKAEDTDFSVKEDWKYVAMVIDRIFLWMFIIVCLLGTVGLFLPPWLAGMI
Human α4β2, sequence (P17787 26-502): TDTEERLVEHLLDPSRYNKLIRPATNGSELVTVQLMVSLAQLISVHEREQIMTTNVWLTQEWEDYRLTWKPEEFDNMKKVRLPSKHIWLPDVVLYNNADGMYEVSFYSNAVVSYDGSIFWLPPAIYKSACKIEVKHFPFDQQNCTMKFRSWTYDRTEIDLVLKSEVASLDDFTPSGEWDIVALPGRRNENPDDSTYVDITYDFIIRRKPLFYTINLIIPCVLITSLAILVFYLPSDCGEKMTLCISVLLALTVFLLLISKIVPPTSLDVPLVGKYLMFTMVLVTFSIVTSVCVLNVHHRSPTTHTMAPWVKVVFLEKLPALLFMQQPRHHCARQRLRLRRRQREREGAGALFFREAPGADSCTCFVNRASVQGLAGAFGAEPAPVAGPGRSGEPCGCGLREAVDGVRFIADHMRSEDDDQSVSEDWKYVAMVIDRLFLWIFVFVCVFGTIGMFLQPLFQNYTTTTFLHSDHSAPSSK
In the next experiment the target is α7 nAChR Subtype (Rattus norvegicus, UniProt Q05941). Nature of the experiment: Radioligand binding at α7 nAChR subtype, inhibition of [3H]MLA binding, rat hippocampus membranes (HTS at 5 μM, then Ki). To be noted: for inhibition at 5 µM: read-out: α7 HTS outcome (α7 Ki).
α7 nAChR Subtype, sequence (Q05941 23-502): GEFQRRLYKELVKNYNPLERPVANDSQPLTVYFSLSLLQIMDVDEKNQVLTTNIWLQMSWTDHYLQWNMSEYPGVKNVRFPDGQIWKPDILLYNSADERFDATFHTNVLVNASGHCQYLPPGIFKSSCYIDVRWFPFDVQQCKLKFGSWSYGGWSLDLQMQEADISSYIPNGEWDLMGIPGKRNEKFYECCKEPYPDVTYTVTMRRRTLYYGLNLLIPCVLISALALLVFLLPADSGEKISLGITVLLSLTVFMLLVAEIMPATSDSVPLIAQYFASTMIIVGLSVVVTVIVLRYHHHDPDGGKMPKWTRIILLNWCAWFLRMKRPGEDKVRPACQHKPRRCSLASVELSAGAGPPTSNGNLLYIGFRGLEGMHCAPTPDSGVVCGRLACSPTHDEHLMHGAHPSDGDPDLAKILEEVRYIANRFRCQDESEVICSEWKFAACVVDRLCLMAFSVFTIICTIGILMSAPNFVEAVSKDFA
The mark [1] stands for this setting: read-out: α7 Ki, [3H]MLA 5 nM, rat hippocampus.

α4β2 nAChR Subtype, sequence (P09483 31-630): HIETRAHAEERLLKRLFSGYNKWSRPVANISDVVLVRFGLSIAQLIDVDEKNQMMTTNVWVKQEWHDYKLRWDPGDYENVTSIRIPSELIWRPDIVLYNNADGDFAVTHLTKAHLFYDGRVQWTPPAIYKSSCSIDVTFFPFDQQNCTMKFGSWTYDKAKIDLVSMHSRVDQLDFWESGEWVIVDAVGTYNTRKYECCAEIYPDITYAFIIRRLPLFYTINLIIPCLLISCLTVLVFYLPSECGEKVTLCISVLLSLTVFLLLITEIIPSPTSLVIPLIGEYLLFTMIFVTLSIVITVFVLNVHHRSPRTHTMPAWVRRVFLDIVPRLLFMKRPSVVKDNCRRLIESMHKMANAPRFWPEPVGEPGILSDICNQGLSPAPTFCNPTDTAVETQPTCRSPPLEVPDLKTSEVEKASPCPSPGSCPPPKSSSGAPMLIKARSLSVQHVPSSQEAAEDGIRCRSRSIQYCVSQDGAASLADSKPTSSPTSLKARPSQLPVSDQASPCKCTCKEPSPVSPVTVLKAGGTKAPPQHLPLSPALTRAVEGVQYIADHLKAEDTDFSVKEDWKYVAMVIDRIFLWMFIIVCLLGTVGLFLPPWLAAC
α4β2 nAChR Subtype, sequence (P12390 25-500): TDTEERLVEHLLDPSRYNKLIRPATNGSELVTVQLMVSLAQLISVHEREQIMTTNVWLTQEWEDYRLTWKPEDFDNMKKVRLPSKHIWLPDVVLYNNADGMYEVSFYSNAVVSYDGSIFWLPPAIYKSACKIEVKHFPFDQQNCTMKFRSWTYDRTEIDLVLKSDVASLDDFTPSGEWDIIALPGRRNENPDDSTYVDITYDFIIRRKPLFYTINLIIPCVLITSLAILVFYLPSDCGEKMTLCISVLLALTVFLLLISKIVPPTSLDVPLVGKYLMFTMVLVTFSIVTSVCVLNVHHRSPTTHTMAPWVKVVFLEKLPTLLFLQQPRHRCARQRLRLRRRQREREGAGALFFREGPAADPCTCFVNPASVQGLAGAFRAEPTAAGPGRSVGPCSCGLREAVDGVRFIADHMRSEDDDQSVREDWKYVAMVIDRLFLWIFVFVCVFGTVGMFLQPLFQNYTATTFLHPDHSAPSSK

For the compound `O=C(CF)C1CC2CNCC2C1` (single isomer, unassigned; isomer 1) [1-(3-azabicyclo[3.3.0]oct-7-yl)-2-fluoro-1-ethanone trifluoroacetate], the Ki came out at 154 nM on α4β2 nAChR Subtype (read-out: Rat α4β2 Ki) and 176 nM on Human α4β2.
For `O=C(C1CC2CNCC(C2)C1)N1CCOCC1` (stereo not shown) [4-morpholinyl(3-azabicyclo[3.3.1]non-7-yl)methanone], the Ki on α4β2 nAChR Subtype (read-out: Rat α4β2 Ki) is 62.5 nM; at Human α4β2, 22.5 nM. The inhibition at 5 µM on α7 nAChR Subtype was below 50%.
Consider `O=C(NCC(F)(F)F)C1CC2CNCC(C2)C1` (stereo not shown) [N-(2,2,2-trifiuoroethyl)-3-azabicyclo[3.3.1]nonane-7-carboxamide], for which the Ki was 40.8 nM at α4β2 nAChR Subtype (read-out: Rat α4β2 Ki), 22.8 nM at Human α4β2 and above 10000 nM at α7 nAChR Subtype (setting [1]).
As for `CC(C)C(=O)C1C[C@H]2CNC[C@H]2C1` (mixture of isomers) [1-(3-azabicyclo[3.3.0]oct-7-yl)-2-methyl-1-propanone], the Ki on α4β2 nAChR Subtype (Rat α4β2 Ki) stood at 0.3 nM; at Human α4β2 it was 0.2 nM; at α7 nAChR Subtype, 2380 nM.
For `CC1COCC(C)N1C(=O)C1C[C@H]2CNC[C@H]2C1` (stereo partly shown) [(3-azabicyclo[3.3.0]oct-7-yl)(2,6-dimethylmorpholin-1-yl)methanone], the figures for the inhibition constant (Ki) at α4β2 nAChR Subtype (read-out: Rat α4β2 Ki) and on Human α4β2 were 57.5 nM and 71.1 nM, respectively. In addition, the inhibition at 5 µM at α7 nAChR Subtype is below 50%.
For `O=C(OCc1ccoc1)C1C[C@H]2CNC[C@H]2C1` (mixture of isomers) [(furan-3-yl)methyl 3-azabicyclo[3.3.0]octane-7-carboxylate], in that order: 19.6 nM, 16.3 nM and below 50%.
The corresponding values for `O=C(NCC1CC1)C1CC2CNCC(C2)C1` (stereo not shown) [N-(cyclopropylmethyl)-3-azabicyclo[3.3.1]nonane-7-carboxamide] are 69.1 nM, 92.2 nM and below 50%.
For the compound `O=C(NCc1ccco1)C1C[C@H]2CNC[C@H]2C1` (mixture of isomers) [N-(2-furanylmethyl)-3-azabicyclo[3.3.0]octane-7-carboxamide], the Ki at α4β2 nAChR Subtype (Rat α4β2 Ki) was 272 nM; at Human α4β2 it was 302 nM; at α7 nAChR Subtype it was 74900 nM.
Turning to `O=C(C1C[C@H]2CNC[C@H]2C1)N1CC=CCC1` (mixture of isomers) [(3-azabicyclo[3.3.0]oct-7-yl)(2,3,6-trihydropyridin-1-yl)methanone], the Ki at α4β2 nAChR Subtype (read-out: Rat α4β2 Ki) was determined as 46.3 nM; at Human α4β2, 28.4 nM. For the same compound, the inhibition at 5 µM at α7 nAChR Subtype is below 50%.
Turning to `O=C(CF)C1CC2CNCC2C1` (single isomer, unassigned; isomer 1) [1-(3-azabicyclo[3.3.0]oct-7-yl)-2-fluoro-1-ethanone trifluoroacetate cis isomer, 1-(3-azabicyclo[3.3.0]oct-7-yl)-2-fluoro-1-ethanone trifluoroacetate], the Ki is 6.8 nM on α4β2 nAChR Subtype (read-out: Rat α4β2 Ki) and 6.3 nM on Human α4β2.
For `O=C(c1ccco1)[C@H]1C[C@H]2CNC[C@H]2C1` [cis-2-furanyl(3-azabicyclo[3.3.0]oct-7-yl)methanone], the Ki on α4β2 nAChR Subtype (Rat α4β2 Ki) stood at 11 nM; at Human α4β2, 13.2 nM. Further, on α7 nAChR Subtype, the inhibition at 5 µM is below 50%.
As to `O=C(NCc1ccccc1)C1CC2CNCC(C2)C1` (stereo not shown) [N-benzyl-3-azabicyclo[3.3.1]nonane-7-carboxamide], the Ki on α4β2 nAChR Subtype (read-out: Rat α4β2 Ki) came to 885 nM; at Human α4β2 it was 9 nM. For the same compound, the inhibition at 5 µM on α7 nAChR Subtype was below 50%.
Turning to `CCNC(=O)C1CC2CNCC(C2)C1` (stereo not shown) [N-ethyl-3-azabicyclo[3.3.1]nonane-7-carboxamide], the figures for the Ki at α4β2 nAChR Subtype (read-out: Rat α4β2 Ki) and on Human α4β2 were 13.5 nM and 6.4 nM, respectively. The inhibition at 5 µM on α7 nAChR Subtype is below 50%.
For the compound `NCCNC(=O)C1CC2CNCC(C2)C1` (stereo not shown) [N-(2-aminoethyl)-3-azabicyclo[3.3.1]nonane-7-carboxamide], the Ki on Human α4β2 turned out to be 52.4 nM. The inhibition at 5 µM at α7 nAChR Subtype was below 50%.
For `CC(C)OC(=O)C1C[C@H]2CNC[C@H]2C1` (mixture of isomers) [isopropyl 3-azabicyclo[3.3.0]octane-7-carboxylate], the Ki was 103 nM on α4β2 nAChR Subtype (read-out: Rat α4β2 Ki), 7.8 nM on Human α4β2 and above 10000 nM on α7 nAChR Subtype.
Regarding `O=C(OC1CCOCC1)C1C[C@H]2CNC[C@H]2C1` (mixture of isomers) [tetrahydropyran-4-yl 3-azabicyclo[3.3.0]octane-7-carboxylate], the Ki came to 68.5 nM on α4β2 nAChR Subtype (read-out: Rat α4β2 Ki) and 146 nM at Human α4β2. The inhibition at 5 µM on α7 nAChR Subtype was below 50%.
With `O=C(OC1CC=CC1)C1C[C@H]2CNC[C@H]2C1` (mixture of isomers) [cyclopent-3-en-1-yl 3-azabicyclo[3.3.0]octane-7-carboxylate], the Ki is 59.3 nM on α4β2 nAChR Subtype (read-out: Rat α4β2 Ki), 22.5 nM on Human α4β2 and above 10000 nM on α7 nAChR Subtype (setting [1]).
Consider `O=C(NC1CC1)C1CC2CNCC(C2)C1` (stereo not shown) [N-cyclopropyl-3-azabicyclo[3.3.1]nonane-7-carboxamide], for which the Ki at α4β2 nAChR Subtype (read-out: Rat α4β2 Ki) was 707 nM; on Human α4β2, 15.6 nM. Further, on α7 nAChR Subtype, the inhibition at 5 µM was below 50%.
Turning to `CC(C)CC(=O)C1C[C@H]2CNC[C@H]2C1` (mixture of isomers) [1-(3-azabicyclo[3.3.0]oct-7-yl)-3-methyl-1-butanone], the values for the Ki on α4β2 nAChR Subtype (read-out: Rat α4β2 Ki) and on Human α4β2 were 27.3 nM and 4.6 nM, respectively. Besides, the inhibition at 5 µM at α7 nAChR Subtype was below 50%.
As for `C#CCC(C)OC(=O)C1C[C@H]2CNC[C@H]2C1` (mixture of isomers) [pent-4-yn-2-yl 3-azabicyclo[3.3.0]octane-7-carboxylate], the Ki on α4β2 nAChR Subtype (read-out: Rat α4β2 Ki) was 144 nM; on Human α4β2, 68.7 nM. Further, the inhibition at 5 µM on α7 nAChR Subtype was below 50%.
Turning to `O=C(NCCF)C1CC2CNCC(C2)C1` (stereo not shown) [N-(2-fluoroethyl)-3-azabicyclo[3.3.1]nonane-7-carboxamide], the results for the Ki at α4β2 nAChR Subtype (Rat α4β2 Ki), at Human α4β2 and on α7 nAChR Subtype were 122 nM, 13.5 nM and above 10000 nM, respectively.
As to `O=C(NCCCF)C1CC2CNCC(C2)C1` (stereo not shown) [N-(3-fluoropropyl)-3-azabicyclo[3.3.1]nonane-7-carboxamide], the Ki worked out at 44.7 nM on α4β2 nAChR Subtype (read-out: Rat α4β2 Ki) and 23.2 nM on Human α4β2. In addition, on α7 nAChR Subtype, the inhibition at 5 µM is below 50%.
The corresponding values for `CC(CF)OC(=O)C1C[C@H]2CNC[C@H]2C1` (mixture of isomers) [1-fluoroprop-2-yl 3-azabicyclo[3.3.0]octane-7-carboxylate] are 271 nM, 112 nM and below 50%.
For `O=C(Nc1ccc(F)cc1)C1CC2CNCC(C2)C1` (stereo not shown) [N-(4-fluorophenyl)-3-azabicyclo[3.3.1]nonane-7-carboxamide], in that order: 92.2 nM, 32.1 nM and below 50%.
On to `COC(=O)C1=CC2CNCC2C1.Cl` (stereo not shown) [methyl 3-azabicyclo[3.3.0]-oct-6-ene-7-carboxylate hydrochloride], for which the Ki at α4β2 nAChR Subtype (read-out: Rat α4β2 Ki) stood at 5 nM; on Human α4β2, 2 nM.
Turning to `O=C(Nc1ccccc1F)C1CC2CNCC(C2)C1` (stereo not shown) [N-(2-fluorophenyl)-3-azabicyclo[3.3.1]nonane-7-carboxamide], the Ki on α4β2 nAChR Subtype (read-out: Rat α4β2 Ki) worked out at 63 nM; at Human α4β2, 24.1 nM. Also, at α7 nAChR Subtype, the inhibition at 5 µM was below 50%.
As to `O=C(C1=CC2CNCC2C1)c1ccco1.O=C(O)C(F)(F)F` (stereo not shown) [2-furanyl(3-azabicyclo[3.3.0]oct-6-en-7-yl)methanone trifluoroacetate], the Ki at α4β2 nAChR Subtype (Rat α4β2 Ki) was 8 nM; on Human α4β2, 2 nM.
`O=C(Nc1cccnc1)C1CC2CNCC(C2)C1` (stereo not shown) [N-(pyridin-3-yl)-3-azabicyclo[3.3.1]nonane-7-carboxamide] registered a Ki at Human α4β2 of 46.8 nM. In addition, the inhibition at 5 µM on α7 nAChR Subtype was below 50%.
In the case of `O=C(NCC(F)(F)F)C1C[C@H]2CNC[C@H]2C1.O=C(O)C(F)(F)F` (mixture of isomers) [N-(2,2,2-trifluoroethyl)-3-azabicyclo[3.3.0]octane-7-carboxamide trifluoroacetate], the Ki at Human α4β2 is 261 nM.
Consider `COCC(=O)C1C[C@H]2CNC[C@H]2C1.O=C(O)C(F)(F)F` (mixture of isomers) [1-(3-azabicyclo[3.3.0]oct-7-yl)-2-methoxy-1-ethanone trifluoroacetate], for which the inhibition constant (Ki) worked out at 32 nM on α4β2 nAChR Subtype (read-out: Rat α4β2 Ki) and 31 nM at Human α4β2.
Regarding `C=CCC(C)OC(=O)C1C[C@H]2CNC[C@H]2C1` (mixture of isomers) [pent-4-en-2-yl 3-azabicyclo[3.3.0]octane-7-carboxylate], the Ki on Human α4β2 is 44.8 nM; at α7 nAChR Subtype (setting [1]), above 10000 nM.
On to `CC(C)C(=O)C1CC2CNCC(C2)C1` (stereo not shown) [1-(3-azabicyclo[3.3.1]non-7-yl)-2-methyl-1-propanone], for which the figures for the Ki on Human α4β2 and at α7 nAChR Subtype were 78.9 nM and above 10000 nM, respectively.
The corresponding values for `O=C(OC1CCC1)C1C[C@H]2CNC[C@H]2C1` (mixture of isomers) [cyclobutyl 3-azabicyclo[3.3.0]octane-7-carboxylate] are 80.6 nM and above 10000 nM.
In the case of `O=C(Nc1ccccc1)C1CC2CNCC(C2)C1` (stereo not shown) [N-phenyl-3-azabicyclo[3.3.1]nonane-7-carboxamide], on Human α4β2, the Ki worked out at 12.7 nM. Moreover, the inhibition at 5 µM at α7 nAChR Subtype is below 50%.
Turning to `CC(C)OCC(=O)C1C[C@H]2CNC[C@H]2C1.O=C(O)C(F)(F)F` (mixture of isomers) [1-(3-Azabicyclo[3.3.0]oct-7-yl)-2-isopropoxy-1-ethanone trifluoroacetate], the values for the Ki at α4β2 nAChR Subtype (read-out: Rat α4β2 Ki) and at Human α4β2 were 427 nM and 261 nM, respectively.
`CN(C)C(=O)[C@H]1C[C@H]2CNC[C@H]2C1` [cis-N,N-dimethyl-3-azabicyclo[3.3.0]octane-7-carboxamide] came in with a Ki at Human α4β2 of 1340 nM. Also, the inhibition at 5 µM on α7 nAChR Subtype is below 50%.
For the compound `O=C(c1ccco1)C1CC2CNCC(C2)C1` (stereo not shown) [2-furanyl(3-azabicyclo[3.3.1]non-7-yl)methanone], the Ki on Human α4β2 was 113 nM; on α7 nAChR Subtype, above 10000 nM.
Compound `CC1COCC(C)N1C(=O)C1=C[C@@H]2CNC[C@@H]2C1` (stereo partly shown) [(3-azabicyclo[3.3.0]oct-6-en-7-yl)(2,6-dimethylmorpholin-1-yl)methanone] returned a Ki on Human α4β2 of 1710 nM. In addition, the inhibition at 5 µM on α7 nAChR Subtype was below 50%.

In general, Ki refers to the equilibrium dissociation constant of an inhibitor or competing ligand from its target.
